From US5863944A, “Compounds and compositions for delivering active agents” (Emisphere Technologies, Inc., priority 1997, dated 1999)
Values after ≈ are worked out from the molar mass of the structure shown. Values belong to the molecule of their own block, whether it stands above or below them.

Assay: Carrier properties: solubility
Type: physicochemical
Conditions: for Solubility (appearance): 200 mg/mL

Solubility (appearance) (pH = 8.7): slightly milky | solubility (pH 8.7): 200 mg/mL (≈ 675 mM)
Compound: Nc1ccc(F)cc1C(=O)NCCCCCCCC(=O)O [Compound 1, N-(2-Amino-5-fluorobenzoyl)-8-aminocaprylic Acid]

Solubility (appearance) (pH = 8.44): milky suspension | solubility (pH 8.44): 200 mg/mL (≈ 632 mM)
Compound: Nc1ccc(F)cc1C(=O)Nc1ccc(CCCC(=O)O)cc1 [Compound 2, 4-(N-(2-amino-5-fluorobenzoyl)-4-aminophenyl)butyric]

Solubility (appearance) (pH = 8.28): soluble | solubility (soluble at pH = 8.28): 200 mg/mL (≈ 637 mM)
Compound: O=C(O)CCCCCCCC(=O)Nc1cc(Cl)ccc1O [Compound 3, 8-(2-hydroxy-5-chloroanilinocarbonyl)octanoic acid]
